From ChEMBL document CHEMBL4364273, “Discovery of SHR1653, a Highly Potent and Selective OTR Antagonist with Improved Blood-Brain Barrier Penetration” (ACS Med Chem Lett, 2019)
pIC50: −log10 of the molar value.

What was measured:
[1] = target: T1, Oxytocin receptor (Homo sapiens, UniProt P30559); assay: Antagonist activity at human OTR expressed in HEK293 cells assessed as decrease in calcium flux measured after 10 mins in […] by Fluo-4 dye based microplate reader based assay; type: functional, cell-based
T1 sequence (P30559 whole entry): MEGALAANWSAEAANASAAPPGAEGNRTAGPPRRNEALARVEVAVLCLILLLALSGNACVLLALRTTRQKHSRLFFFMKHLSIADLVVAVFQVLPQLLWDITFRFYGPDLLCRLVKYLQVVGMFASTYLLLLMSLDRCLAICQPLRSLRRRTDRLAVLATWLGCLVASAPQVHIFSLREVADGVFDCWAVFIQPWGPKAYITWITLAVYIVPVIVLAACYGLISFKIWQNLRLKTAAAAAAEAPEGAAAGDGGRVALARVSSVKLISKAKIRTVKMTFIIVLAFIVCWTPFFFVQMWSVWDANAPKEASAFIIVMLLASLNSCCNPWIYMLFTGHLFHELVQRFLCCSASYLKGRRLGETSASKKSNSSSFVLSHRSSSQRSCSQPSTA

[2] = target: Vasopressin V1a receptor (Homo sapiens, UniProt P37288); assay: Antagonist activity at human vasopressin V1A receptor expressed in HEK293 cells assessed as decrease in vasopressin-stimulated calcium flux measured after 10 mins by Fluo-4 dye based microplate reader based assay; type: functional, cell-based
[3] = target: T2, Vasopressin V1b receptor (Homo sapiens, UniProt P47901); assay: Antagonist activity at human vasopressin V1B receptor expressed in HEK293 cells assessed as decrease in vasopressin-stimulated calcium flux measured after 10 mins by Fluo-4 dye based microplate reader based assay; type: functional, cell-based
T2 sequence (P47901 whole entry): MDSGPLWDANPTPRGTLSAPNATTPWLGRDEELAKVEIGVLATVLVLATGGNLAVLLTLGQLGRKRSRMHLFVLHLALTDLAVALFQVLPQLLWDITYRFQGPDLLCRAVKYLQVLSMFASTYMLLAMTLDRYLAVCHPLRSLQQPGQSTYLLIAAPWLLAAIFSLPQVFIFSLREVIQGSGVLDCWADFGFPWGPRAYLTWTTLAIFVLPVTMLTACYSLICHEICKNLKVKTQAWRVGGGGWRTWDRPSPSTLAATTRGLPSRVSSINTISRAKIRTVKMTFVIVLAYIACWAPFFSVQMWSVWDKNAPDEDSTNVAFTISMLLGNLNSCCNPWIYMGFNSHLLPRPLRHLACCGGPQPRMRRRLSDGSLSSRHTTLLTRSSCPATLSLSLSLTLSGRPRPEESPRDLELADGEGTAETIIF

[4] = Unbound fraction in Sprague-Dawley rat plasma by LC-MS/MS analysis; type: ADME, cell-free
[5] = Unbound fraction in Sprague-Dawley rat brain by LC-MS/MS analysis; type: ADME, tissue-based
[6] = Plasma concentration in Sprague-Dawley rat by LC-MS/MS analysis; type: ADME, cell-free
[7] = Drug concentration in Sprague-Dawley rat brain by LC-MS/MS analysis; type: ADME, tissue-based; conditions: in vivo
[8] = Unbound brain-to-plasma concentration ratio in Sprague-Dawley rat by LC-MS/MS analysis; type: ADME, cell-free; conditions: read-out: K(p,uu,brain)
[9] = tested on: Rattus norvegicus; assay: Anti-premature ejaculation activity in anesthetized oxytocin-induced uterine contraction Sprague-Dawley rat model assessed as decrease in intraluminal uterine pressure at 30 mg/kg, po treated for 20 mins and 1 hr later treated with oxytocin and measured for 15 to 30 mins relative to control; type: functional
[10] = AUC (0 to 24 hrs) in anesthetized oxytocin-induced uterine contraction Sprague-Dawley rat model at 30 mg/kg, po; type: ADME, organism-based; parameters: dose 30 mg/kg, time < 24 hr, route oral; conditions: in vivo
[11] = Cmax in Sprague-Dawley rat at 2 mg/kg, po measured for 24 hrs by LC-MS/MS analysis; type: ADME, organism-based; parameters: dose 2 mg/kg, route oral; conditions: in vivo
[12] = Half-life in Sprague-Dawley rat at 2 mg/kg, po measured for 24 hrs by LC-MS/MS analysis; type: ADME, organism-based; conditions: in vivo
[13] = AUC (0 to 24 hrs) in Sprague-Dawley rat at 2 mg/kg, po by LC-MS/MS analysis; type: ADME, organism-based; parameters: time < 24 hr, dose 2 mg/kg, route oral; conditions: in vivo
[14] = Clearance in Sprague-Dawley rat at 1 mg/kg, iv measured for 24 hrs by LC-MS/MS analysis; type: ADME, organism-based; conditions: in vivo
[15] = target: Voltage-gated inwardly rectifying potassium channel KCNH2 (Homo sapiens, UniProt Q12809); assay: Inhibition of human ERG
Sequence of Voltage-gated inwardly rectifying potassium channel KCNH2 (Q12809 whole entry): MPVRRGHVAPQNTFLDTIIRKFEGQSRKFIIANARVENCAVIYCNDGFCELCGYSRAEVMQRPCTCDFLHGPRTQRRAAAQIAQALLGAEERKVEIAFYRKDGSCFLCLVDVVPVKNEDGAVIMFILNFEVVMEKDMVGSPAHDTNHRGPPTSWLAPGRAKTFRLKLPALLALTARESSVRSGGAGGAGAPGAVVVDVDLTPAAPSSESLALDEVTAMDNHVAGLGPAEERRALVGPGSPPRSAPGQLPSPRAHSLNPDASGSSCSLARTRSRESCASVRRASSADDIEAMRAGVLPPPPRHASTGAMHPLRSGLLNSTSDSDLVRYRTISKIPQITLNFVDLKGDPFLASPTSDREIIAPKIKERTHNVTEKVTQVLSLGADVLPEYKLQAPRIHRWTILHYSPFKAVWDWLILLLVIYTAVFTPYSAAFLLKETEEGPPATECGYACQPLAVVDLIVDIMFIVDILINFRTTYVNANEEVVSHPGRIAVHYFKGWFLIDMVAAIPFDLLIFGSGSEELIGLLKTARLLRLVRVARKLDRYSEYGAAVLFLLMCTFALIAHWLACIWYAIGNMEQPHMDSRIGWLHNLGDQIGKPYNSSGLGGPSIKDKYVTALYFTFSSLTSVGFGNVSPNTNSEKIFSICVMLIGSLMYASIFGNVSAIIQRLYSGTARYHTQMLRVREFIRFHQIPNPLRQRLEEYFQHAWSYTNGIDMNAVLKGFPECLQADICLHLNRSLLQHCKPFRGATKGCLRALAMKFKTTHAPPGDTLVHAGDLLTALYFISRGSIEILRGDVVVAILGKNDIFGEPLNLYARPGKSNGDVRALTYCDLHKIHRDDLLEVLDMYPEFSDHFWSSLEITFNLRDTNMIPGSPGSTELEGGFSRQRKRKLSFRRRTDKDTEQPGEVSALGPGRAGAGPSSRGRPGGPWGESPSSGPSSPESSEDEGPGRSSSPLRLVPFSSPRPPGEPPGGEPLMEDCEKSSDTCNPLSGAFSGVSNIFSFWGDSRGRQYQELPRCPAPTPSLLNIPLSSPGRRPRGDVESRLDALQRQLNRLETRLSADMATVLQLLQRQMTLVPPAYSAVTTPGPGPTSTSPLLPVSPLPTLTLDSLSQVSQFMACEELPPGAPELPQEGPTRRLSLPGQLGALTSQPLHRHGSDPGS

Sequence of Vasopressin V1a receptor (P37288 whole entry): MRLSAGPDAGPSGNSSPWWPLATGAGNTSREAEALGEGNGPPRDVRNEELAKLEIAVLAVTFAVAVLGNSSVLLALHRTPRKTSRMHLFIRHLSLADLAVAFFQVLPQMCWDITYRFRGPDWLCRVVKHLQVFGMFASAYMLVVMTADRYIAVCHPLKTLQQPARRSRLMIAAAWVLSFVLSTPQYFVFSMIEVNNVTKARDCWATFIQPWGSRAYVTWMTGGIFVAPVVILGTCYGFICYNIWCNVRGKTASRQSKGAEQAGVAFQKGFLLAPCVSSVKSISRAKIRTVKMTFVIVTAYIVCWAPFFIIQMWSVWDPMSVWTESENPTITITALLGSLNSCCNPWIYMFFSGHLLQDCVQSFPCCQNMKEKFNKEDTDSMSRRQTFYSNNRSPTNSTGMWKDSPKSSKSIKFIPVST

Row | pIC50 [1] | pIC50 [2] | Structure (SMILES) | other results
1 | 5.86 | – | COCc1nnc(N2C[C@H]3C[C@@H](Oc4ccc(F)cc4Cl)C[C@H]3C2)n1-c1ccc(OC)nc1 | –
2 | 6.07 | – | COCc1nnc(N2CC3CN(c4ccc(F)cc4Cl)CC32)n1-c1ccc(OC)nc1 (stereo not given) | –
3 | 8.04 | – | CC[C@H](C)[C@@H]1C(=O)N[C@H](C2Cc3ccccc3C2)C(=O)N1[C@@H](C(=O)N1CCOCC1)c1ccc(C)nc1C [EPELSIBAN] | –
4 | 6.92 | – | COCc1nnc(N2CC3CN(c4ccc(F)cc4Cl)C3C2)n1-c1ccc(OC)nc1 (stereo not given) | –
5 | 6.63 | 6.11 | COc1ccc(-n2c(CC#N)nnc2N2C[C@@H]3C[C@]3(c3ccc(F)cc3Cl)C2)cn1 | pIC50 [3]: 4.35
6 | 5.91 | – | COCc1nnc(N2C3CCC2CC(Oc2ccc(F)cc2Cl)C3)n1-c1ccc(OC)nc1 (stereo not given) | –
7 | 7.63 | – | COCc1nnc(N2CC(Oc3ccc(F)cc3Cl)C2)n1-c1ccc(OC)nc1 | fraction unbound [4]: 0.0664; fraction unbound [5]: 0.0165; Cp [6]: 699 ng/mL; Ct [7]: 179 ng/g; Kp uu [8]: 0.064; inhibition in vivo at 30 mg/kg [9]: 76.5%; AUC(0-t) at 24 h [10]: 39500 ng·h/mL
8 | 7.52 | – | COCc1nnc(N2C[C@@H]3C[C@]3(c3cccc(F)c3Cl)C2)n1-c1ccc(OC)nc1 | Cmax [11]: 15 ng/mL; half-life [12]: 3.15 h; AUC(0-t) at 24 h [13]: 34 ng·h/mL
9 | 6.65 | 5.70 | COc1ccc(-n2c(CO[C@@H]3CCOC3)nnc2N2C[C@@H]3C[C@]3(c3ccc(F)cc3Cl)C2)cn1 | –
10 | 5.17 | – | COCc1nnc(N2CC3(C2)OCc2cc(F)ccc23)n1-c1ccc(OC)nc1 | –
11 | 6.74 | – | COc1ccc(-n2c(CO[C@H]3CCOC3)nnc2N2C[C@@H]3C[C@]3(c3ccc(F)cc3Cl)C2)cn1 | –
12 | 5.59 | – | COCc1nnc(N2CC3COCC3(c3ccc(F)cc3Cl)C2)n1-c1ccc(OC)nc1 (stereo not given) | –
13 | 7.57 | – | COCc1nnc(N2CCC(c3ccc(F)cc3Cl)C2)n1-c1ccc(OC)nc1 (stereo not given) | Cmax [11]: 204 ng/mL; half-life [12]: 1.89 h; AUC(0-t) at 24 h [13]: 478 ng·h/mL
14 | 6.04 | – | COCc1nnc(N2CCN(Cc3ccc(F)cc3Cl)CC2)n1-c1ccc(OC)nc1 | –
15 | – | 6.09 | COc1ccc(-n2c(COCCF)nnc2N2C[C@@H]3C[C@]3(c3ccc(F)cc3Cl)C2)cn1 | –
16 | – | 6.09 | COCc1nnc(N2C[C@@H]3C[C@]3(c3ccc(F)cc3Cl)C2)n1-c1ccc2c(c1)OCO2 | –
17 | 6.36 | 4.96 | COc1ccc(-n2c(C3CC3)nnc2N2C[C@@H]3C[C@]3(c3ccc(F)cc3Cl)C2)cn1 | –
18 | 8.00 | – | COCc1nnc(N2CCC(c3ccc(F)cc3Cl)CC2)n1-c1ccc(OC)nc1 | Cmax [11]: 96 ng/mL; half-life [12]: 2.39 h; clearance [14]: 45 mL/min/kg; AUC(0-t) at 24 h [13]: 767 ng·h/mL
19 | 6.08 | – | COc1ccc(-n2c(COC3CCOCC3)nnc2N2C[C@@H]3C[C@]3(c3ccc(F)cc3Cl)C2)cn1 | –
20 | 6.40 | – | COCc1nnc(N2CC3(CCc4cc(F)ccc4O3)C2)n1-c1ccc(OC)nc1 | –
21 | 8.03 | 5.76 | CCOCc1nnc(N2C[C@@H]3C[C@]3(c3ccc(F)cc3Cl)C2)n1-c1ccc(OC)nc1 | Cmax [11]: 135 ng/mL; half-life [12]: 3.48 h; clearance [14]: 17.8 mL/min/kg; AUC(0-t) at 24 h [13]: 1020 ng·h/mL; pIC50 [15]: 5.21
22 | – | 5.73 | COc1ccc(-n2c(C(F)F)nnc2N2C[C@@H]3C[C@]3(c3ccc(F)cc3Cl)C2)cn1 | –

Row | Structure (SMILES) | pIC50 [1] | pIC50 [2] | other results
23 | COCc1nnc(C2CCN(Cc3ccc(F)cc3Cl)CC2)n1-c1ccc(OC)nc1 | 5.52 to 5.55 | – | –
